Source: patent US10266535B2, “Inhibitor of FLT3 kinase and use thereof” (HEFEI INSTITUTES OF PHYSICAL SCIENCE, CHINESE ACADEMY OF …, priority 2015, dated 2019)

Experiments:
[1] = test system: U937 (expressing wild-type FLT3 gene); assay: Cell proliferation, Cell Titer-Glo, U937; format: cell-based, human; conditions: Homo sapiens, U-937, 72 h, incubated for 72 hours; read-out: U937 IC50
Protocol: (§1) The above cell lines were constructed by our laboratory.
(§2) The number of viable cells was determined by quantification of ATP in living cells using the Cell Titer-Glo® (Promega, USA) chemiluminescence cell viability assay kit.

[2] = test system: TEL-BaF3-FLT3/ITD (stably expressing FLT3/ITD mutant activated kinase); assay: Cell proliferation, Cell Titer-Glo, TEL-BaF3-FLT3/ITD; format: cell-based, mouse; conditions: Mus musculus, 72 h, incubated for 72 hours; read-out: TEL-BaF3-FLT3/ITD IC50
Protocol: as §1, §2

[3] = test system: OCI-AML-3 (expressing FLT3 A680V mutant gene); assay: Cell proliferation, Cell Titer-Glo, OCI-AML3; format: cell-based; conditions: Homo sapiens, incubated for 72 hours
Protocol: as §1, §2

[4] = test system: MV4-11 (expressing FLT3/ITD mutant gene); assay: Cell proliferation, Cell Titer-Glo, MV4-11; format: cell-based; conditions: Homo sapiens, MV4-11; incubated for 72 hours; read-out: MV4-11 IC50
Protocol: as §1, §2

[5] = biological target: BTK protein kinase (Homo sapiens (Human), UniProt Q06187); assay: In vitro inhibition activity (enzymatic activity), ADP-Glo, BTK; format: biochemical; conditions: ATP 10 μM
Sequence of BTK protein kinase (Q06187 whole entry): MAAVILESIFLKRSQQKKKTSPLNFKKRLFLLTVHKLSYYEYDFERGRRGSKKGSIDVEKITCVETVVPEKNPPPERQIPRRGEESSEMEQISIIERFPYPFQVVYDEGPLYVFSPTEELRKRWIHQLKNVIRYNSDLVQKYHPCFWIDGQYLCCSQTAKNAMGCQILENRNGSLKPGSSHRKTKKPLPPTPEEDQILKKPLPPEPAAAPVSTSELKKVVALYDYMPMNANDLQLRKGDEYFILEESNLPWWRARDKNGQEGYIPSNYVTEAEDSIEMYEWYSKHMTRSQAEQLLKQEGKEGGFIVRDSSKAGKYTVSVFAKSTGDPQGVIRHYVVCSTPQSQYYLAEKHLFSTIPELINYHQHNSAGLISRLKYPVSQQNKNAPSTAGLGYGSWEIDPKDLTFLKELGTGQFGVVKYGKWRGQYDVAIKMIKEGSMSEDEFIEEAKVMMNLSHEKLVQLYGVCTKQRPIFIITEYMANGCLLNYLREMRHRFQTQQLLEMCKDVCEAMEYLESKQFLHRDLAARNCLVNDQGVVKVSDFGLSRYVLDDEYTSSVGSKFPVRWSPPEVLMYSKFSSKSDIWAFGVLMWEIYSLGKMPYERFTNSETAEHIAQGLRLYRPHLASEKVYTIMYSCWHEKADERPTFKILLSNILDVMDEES

Row | Compound | IC50 [1] | IC50 [2] | IC50 [3] | IC50 [4] | IC50 [5]
1 | Nc1ncnc2c1c(-c1ccc(Oc3ccccc3)cc1)nn2[C@@H]1CCCN(C(=O)C(Cl)(Cl)Cl)C1 [Compound 42] | > 10000 nM | 390 nM | > 10000 nM | 1900 nM | 
2 | Nc1ncnc2c1c(-c1ccc(Oc3ccccc3)cc1)nn2[C@@H]1CCCN(C(=O)C2CC2)C1 [Compound 1, (R)-(3-(4-amino-(4-phenoxyphenyl)-1H-pyrazolo[3,4-d]pyrimidin-1-yl)piperidin-1-yl)(cyclopropyl)methanone] | > 10000 nM | 1400 nM | > 10000 nM | 6500 nM | 
3 | CC(Br)C(=O)N1CCC[C@@H](n2nc(-c3ccc(Oc4ccccc4)cc3)c3c(N)ncnc32)C1 (stereo partly shown) [Compound 37] | > 10000 nM | 150 nM | 1090 nM | 230 nM | 
4 | NCCC(=O)N1CCC[C@@H](n2nc(-c3ccc(Oc4ccccc4)cc3)c3c(N)ncnc32)C1 [Compound 46] | 5680 nM | 390 nM | 8610 nM | 750 nM | 
5 | Nc1ncnc2c1c(-c1ccc(Oc3ccccc3)cc1)nn2[C@@H]1CCCN(C(=O)[C@@H](N)Cc2c[nH]cn2)C1 [Compound 6, (S)-2-amino-1-((R)-3-(4-amino-(4-phenoxyphenyl)-1H-pyrazolo[3,4-d]pyrimidin-1-yl)piperidin-1-yl)-3-(1H-imidazol-4-yl)propan-1-one] | > 10000 nM | 1100 nM |  |  | 128 nM
6 | CCCS(=O)(=O)N1CCC[C@@H](n2nc(-c3ccc(Oc4ccccc4)cc3)c3c(N)ncnc32)C1 [Compound 40, (R)-3-(4-phenoxyphenyl)-1-(1-(propylsulfonyl)piperidin-3-yl)-1H-pyrazolo[3,4-d]pyrimidin-4-amine] | 4450 nM | 160 nM | 6610 nM | 760 nM | 
7 | Nc1ncnc2c1c(-c1ccc(Oc3ccccc3)cc1)nn2[C@@H]1CCCN(C(=O)CC(F)(F)F)C1 [Compound 51] | > 10000 nM | 150 nM | > 10000 nM | 610 nM | 
8 | Nc1ncnc2c1c(-c1ccc(Oc3ccccc3)cc1)nn2[C@@H]1CCCN(C(=O)[C@@H](N)Cc2c[nH]c3ccccc23)C1 [Compound 9, (S)-2-amino-1-((R)-3-(4-amino-(4-phenoxyphenyl)-1H-pyrazolo[3,4-d]pyrimidin-1-yl)piperidin-1-yl)-3-(1H-indol-3-yl)propan-1-one] | > 10000 nM |  |  |  | 49 nM
9 | CC(=O)N1CCC[C@@H](n2nc(-c3ccc(Oc4ccccc4)cc3)c3c(N)ncnc32)C1 [Compound 34] | > 10000 nM | 70 nM | 3560 nM | 350 nM | 
10 | CC(Cl)C(=O)N1CCC[C@@H](n2nc(-c3ccc(Oc4ccccc4)cc3)c3c(N)ncnc32)C1 (stereo partly shown) [Compound 38] | 7930 nM | 120 nM | 6510 nM | 970 nM | 
11 | CC(C)(C)C(=O)N1CCC[C@@H](n2nc(-c3ccc(Oc4ccccc4)cc3)c3c(N)ncnc32)C1 [Compound 55] | > 10000 nM | 1800 nM | > 10000 nM | > 10000 nM | 
12 | CN1CCN(CC(=O)N2CCC[C@@H](n3nc(-c4ccc(Oc5ccccc5)cc4)c4c(N)ncnc43)C2)CC1 [Compound 39] | 5870 nM | 93 nM | 4910 nM | 230 nM | 
13 | Nc1ncnc2c1c(-c1ccc(Oc3ccccc3)cc1)nn2[C@@H]1CCCN(C(=O)CCCl)C1 [Compound 36] | 8960 nM | 150 nM | > 10000 nM | 670 nM | 
